20 compounds from patent US10364256B2 (GlaxoSmithKline Intellectual Property Development Limited, priority 2015, dated 2019) can be followed below.

Each structure is given as a SMILES string. Read-outs that look alike come from different tables or passages of the source.

In assay [1] the target is T1, full length Keap1 protein / full length NRF2 protein (Homo sapiens, UniProt Q14145).
T1 construct: full length NRF2 protein and full length Keap1 protein (Keap1 exists a dimer) are used; His
Put plainly: NRF2-Keap1 TR-FRET Low Protein Assay. Format: binding. Conditions: 1.25 nM Keap1 FlagHis and 2.5 nM biotin-NRF2 added. The method, boiled down:
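Flag-tagged full-length Keap1 was preincubated with compound (3-fold series) for 2.25 h at 37 °C in Tris pH 8.0/MgCl2/NaCl/BSA/DTT/CHAPS. Biotin-Avi-NRF2 (added at 2.5 nM) was then bound for 1.25 h at 4 °C. Eu-streptavidin/anti-Flag-APC TR-FRET (665/615 nm) was read after 1 h at RT, and pIC50 came from a four-parameter fit.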

Assay [2] relates to NQO1 specific enzyme activity in BEAS-2B cells (marker for NRF2 activation). Put plainly: BEAS-2B NQO1 MTT Assay. Format: cell-based. The conditions noted are these: Homo sapiens, compound incubated 48 hours, read-out: EC50 (NQO1 specific enzyme activity induction). The method in brief: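 BEAS-2B cells treated with compound for 48 h at 37 °C, then lysed; NQO1 activity in lysates measured kinetically by MTT reduction at A570 over 30 min. pEC50 from 3-parameter fit of ΔOD/min versus log concentration; lysate also taken for Cell Titer Glo.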

T1 sequence (Q14145 whole entry): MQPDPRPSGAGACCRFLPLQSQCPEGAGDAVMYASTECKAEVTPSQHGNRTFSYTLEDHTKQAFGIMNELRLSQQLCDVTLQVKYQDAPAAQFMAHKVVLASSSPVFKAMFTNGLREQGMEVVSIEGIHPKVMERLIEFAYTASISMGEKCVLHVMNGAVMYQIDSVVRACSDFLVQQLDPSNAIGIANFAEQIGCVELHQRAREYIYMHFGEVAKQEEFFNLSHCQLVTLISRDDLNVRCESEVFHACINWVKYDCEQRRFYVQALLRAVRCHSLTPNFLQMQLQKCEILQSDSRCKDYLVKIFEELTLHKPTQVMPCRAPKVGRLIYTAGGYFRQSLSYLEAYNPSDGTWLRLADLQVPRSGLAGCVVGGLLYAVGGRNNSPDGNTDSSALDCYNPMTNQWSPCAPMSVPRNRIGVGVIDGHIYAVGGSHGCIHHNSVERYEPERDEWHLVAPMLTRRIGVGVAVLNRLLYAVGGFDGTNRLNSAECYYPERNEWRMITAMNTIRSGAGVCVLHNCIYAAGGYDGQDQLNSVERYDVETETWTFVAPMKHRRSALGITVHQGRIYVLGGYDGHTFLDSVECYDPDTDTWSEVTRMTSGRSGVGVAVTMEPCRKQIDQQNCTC

`Cn1cc([C@@H]2C[C@H]2c2c(C(=O)O)cnn2-c2cccc(-c3cccc(OCC4CCCSC4)c3)c2)nn1` (mixture of isomers) [Example 144, 5-((1,2-trans)-2-(1-Methyl-1H-1,2,3-triazol-4-yl)cyclopropyl)-1-(3′-((tetrahydro-2H-thiopyran-3-yl)methoxy)-[1,1′-biphenyl]-3-yl)-1H-pyrazole-4-carboxylic Acid] displayed a half-maximal inhibitory concentration (IC50) in assay [1] of 10 to 100 nM. The EC50 in assay [2] lay in the range of 10 to 100 nM.
The compound `Cn1cc([C@@H]2C[C@H]2c2c(C(=O)O)cnn2-c2cccc(-c3cccc(OCC4CCC(F)(F)CC4)c3)c2)nn1` (racemic) [Example 145, 1-(3′-((4,4-Difluorocyclohexyl)methoxy)-[1,1′-biphenyl]-3-yl)-5-((1,2-trans)-2-(1-methyl-1H-1,2,3-triazol-4-yl)cyclopropyl)-1H-pyrazole-4-carboxylic acid] had an IC50 in assay [1] of 10 to 100 nM. In assay [2], the concentration for a half-maximal effect (EC50) was 100 to 1000 nM.
On the same counts, the results for `Cn1cc([C@@H]2C[C@H]2c2c(C(=O)O)cnn2-c2cccc(-c3cccc(OC[C@H]4CC[C@H](C(F)(F)F)CC4)c3)c2)nn1` (racemic) [Example 146, 5-((1,2-trans)-2-(1-Methyl-1H-1,2,3-triazol-4-yl)cyclopropyl)-1-(3′-(((1r,4R)-4-(trifluoromethyl)cyclohexyl)methoxy)-[1,1′-biphenyl]-3-yl)-1H-pyrazole-4-carboxylic acid] are 10 to 100 nM and 10 to 100 nM.
The matching figures for `Cn1cc([C@@H]2C[C@H]2c2c(C(=O)O)cnn2-c2cccc(-c3cccc(OCC4CCCC(C(F)(F)F)C4)c3)c2)nn1` (mixture of isomers) [Example 147, 5-((1,2-trans)-2-(1-Methyl-1H-1,2,3-triazol-4-yl)cyclopropyl)-1-(3′-((3-(trifluoromethyl)cyclohexyl)methoxy)-[1,1′-biphenyl]-3-yl)-1H-pyrazole-4-carboxylic acid]: 10 to 100 nM and 10 to 100 nM.
The matching figures for `Cn1cc([C@@H]2C[C@H]2c2c(C(=O)O)cnn2-c2cccc(-c3cccc(OCC4CCCCC4C(F)(F)F)c3)c2)nn1` (mixture of isomers) [Example 148, 5-((1,2-trans)-2-(1-Methyl-1H-1,2,3-triazol-4-yl)cyclopropyl)-1-(3′-((2-(trifluoromethyl)cyclohexyl)methoxy)-[1,1′-biphenyl]-3-yl)-1H-pyrazole-4-carboxylic acid]: under 10 nM and 10 to 100 nM.
In turn, `Cn1cc([C@@H]2C[C@H]2c2c(C(=O)O)cnn2-c2cccc(-c3cccc(OCC4CCSCC4)c3)c2)nn1` (racemic) [Example 149, 5-((1,2-trans)-2-(1-Methyl-1H-1,2,3-triazol-4-yl)cyclopropyl)-1-(3′-((tetrahydro-2H-thiopyran-4-yl)methoxy)-[1,1′-biphenyl]-3-yl)-1H-pyrazole-4-carboxylic acid] registered an IC50 in assay [1] of 10 to 100 nM. Also, the EC50 in assay [2] was in the range of 100 to 1000 nM.
On to `CCC1CCC(COc2cccc(-c3cccc(-n4ncc(C(=O)O)c4[C@@H]4C[C@H]4c4cn(C)nn4)c3)c2)CC1` (mixture of isomers) [Example 150, 1-(3′-((4-Ethylcyclohexyl)methoxy)-[1,1′-biphenyl]-3-yl)-5-((1,2-trans)-2-(1-methyl-1H-1,2,3-triazol-4-yl)cyclopropyl)-1H-pyrazole-4-carboxylic acid], for which the half-inhibitory concentration (IC50) in assay [1] lay in the range of 10 to 100 nM. For the same compound, the EC50 in assay [2] fell in the range of 10 to 100 nM.
For the compound `Cn1cc([C@@H]2C[C@H]2c2c(C(=O)O)cnn2-c2cccc(-c3cccc(OCC4CCCCC4)c3F)c2)nn1` (racemic) [Example 152, 1-(3′-(Cyclohexylmethoxy)-2′-fluoro-[1,1′-biphenyl]-3-yl)-5-((1,2-trans)-2-(1-methyl-1H-1,2,3-triazol-4-yl)cyclopropyl)-1H-pyrazole-4-carboxylic Acid], the concentration for half-maximal inhibition (IC50) in assay [1] was in the range of 10 to 100 nM. Further, in assay [2], the EC50 lay within 10 to 100 nM.
With `Cn1cc([C@@H]2C[C@H]2c2c(C(=O)O)cnn2-c2cccc(-c3cccc(OC(C4CCCCC4)C(F)(F)F)c3)c2)nn1` (mixture of isomers) [Example 157, 1-(3′-(1-Cyclohexyl-2,2,2-trifluoroethoxy)-[1,1′-biphenyl]-3-yl)-5-((1,2-trans)-2-(1-methyl-1H-1,2,3-triazol-4-yl)cyclopropyl)-1H-pyrazole-4-carboxylic Acid], the IC50 in assay [1] lay in the range of 10 to 100 nM. The EC50 in assay [2] was in the range of 10 to 100 nM.
Regarding `CO[C@H]1CC[C@H](COc2cccc(-c3cccc(-n4ncc(C(=O)O)c4[C@H]4C[C@@H]4c4cn(C)nn4)c3)c2)CC1` (racemic) [Example 176, 1-(3′-(((1R,4S)-4-Methoxycyclohexyl)methoxy)-[1,1′-biphenyl]-3-yl)-5-((1,2-trans)-2-(1-methyl-1H-1,2,3-triazol-4-yl)cyclopropyl)-1H-pyrazole-4-carboxylic acid], the concentration for half-maximal inhibition (IC50) in assay [1] lay within 10 to 100 nM. For the same compound, the EC50 in assay [2] was 100 to 1000 nM.
The matching figures for `COC1CCCCC1COc1cccc(-c2cccc(-n3ncc(C(=O)O)c3[C@H]3C[C@@H]3c3cn(C)nn3)c2)c1` (mixture of isomers) [Example 177, 1-(3′-((2-Methoxycyclohexyl)methoxy)-[1,1′-biphenyl]-3-yl)-5-((1,2-trans)-2-(1-methyl-1H-1,2,3-triazol-4-yl)cyclopropyl)-1H-pyrazole-4-carboxylic acid]: 100 to 1000 nM and 100 to 1000 nM.
The matching figures for `COC1CCCC(COc2cccc(-c3cccc(-n4ncc(C(=O)O)c4[C@H]4C[C@@H]4c4cn(C)nn4)c3)c2)C1` (mixture of isomers) [Example 178, 1-(3′-((3-Methoxycyclohexyl)methoxy)-[1,1′-biphenyl]-3-yl)-5-((1,2-trans)-2-(1-methyl-1H-1,2,3-triazol-4-yl)cyclopropyl)-1H-pyrazole-4-carboxylic acid]: 10 to 100 nM and 100 to 1000 nM.
On the same counts, the results for `Cn1cc([C@H]2C[C@@H]2c2c(C(=O)O)cnn2-c2cccc(-c3cccc(OC[C@H]4CC[C@H](Cl)CC4)c3)c2)nn1` (racemic) [Example 185, 1-(3′-((4-Chlorocyclohexyl)methoxy)-[1,1′-biphenyl]-3-yl)-5-((1,2-trans)-2-(1-methyl-1H-1,2,3-triazol-4-yl)cyclopropyl)-1H-pyrazole-4-carboxylic Acid] are 10 to 100 nM and 10 to 100 nM.
In the case of `Cn1cc([C@H]2C[C@@H]2c2c(C(=O)O)cnn2-c2cccc(-c3cccc(OCC4CCCC(Cl)C4)c3)c2)nn1` (mixture of isomers) [Example 187, 1-(3′-((3-chlorocyclohexyl)methoxy)-[1,1′-biphenyl]-3-yl)-5-((1,2-trans)-2-(1-methyl-1H-1,2,3-triazol-4-yl)cyclopropyl)-1H-pyrazole-4-carboxylic acid], in assay [1], the IC50 lay within 10 to 100 nM. Moreover, in assay [2], the EC50 is 10 to 100 nM.
In assay [1], `CCn1cc([C@H]2C[C@@H]2c2c(C(=O)O)cnn2-c2cccc(-c3cccc(OC(C)C4CCCCC4)c3)c2)nn1` (mixture of isomers) [Example 192, 1-(3′-(1-cyclohexylethoxy)-[1,1′-biphenyl]-3-yl)-5-((1,2-trans)-2-(1-ethyl-1H-1,2,3-triazol-4-yl)cyclopropyl)-1H-pyrazole-4-carboxylic acid] yielded a concentration for half-maximal inhibition (IC50) of 10 to 100 nM. Moreover, the EC50 in assay [2] lay in the range of 1 to 10 nM.
In turn, `CCC[C@@H]1CCCCN1C(=O)c1cccc(-c2cccc(-n3ncc(C(=O)O)c3[C@H]3C[C@@H]3c3cn(CC)nn3)c2)c1` (racemic) [Example 201, 5-((1,2-trans)-2-(1-Ethyl-1H-1,2,3-triazol-4-yl)cyclopropyl)-1-(3′-((R)-2-propylpiperidine-1-carbonyl)-[1,1′-biphenyl]-3-yl)-1H-pyrazole-4-carboxylic acid] displayed a concentration for half-maximal inhibition (IC50) in assay [1] of under 10 nM. For the same compound, in assay [2] (BEAS-2B, 48 h), the EC50 lay within 100 to 1000 nM.
Regarding `CC(Oc1cccc(-c2cccc(-n3ncc(C(=O)O)c3[C@H]3C[C@@H]3c3cn(C)nn3)c2)c1)C1CCCCCC1` (mixture of isomers) [Example 230, 1-(3′-(1-Cycloheptylethoxy)-[1,1′-biphenyl]-3-yl)-5-((1,2-trans)-2-(1-methyl-1H-1,2,3-triazol-4-yl)cyclopropyl)-1H-pyrazole-4-carboxylic acid], in assay [1], the half-inhibitory concentration (IC50) lay within 10 to 100 nM. Also, the EC50 in assay [2] is 1 to 10 nM.
Take `Cn1cc([C@H]2C[C@@H]2c2c(C(=O)O)cnn2-c2cccc(-c3cccc(OCc4ccc(-c5ccccc5)cc4)c3)c2)nn1` (racemic) [Example 237, 1-(3′-([1,1′-Biphenyl]-4-ylmethoxy)-[1,1′-biphenyl]-3-yl)-5-((1,2-trans)-2-(1-methyl-1H-1,2,3-triazol-4-yl)cyclopropyl)-1H-pyrazole-4-carboxylic Acid]: the IC50 in assay [1] is 100 to 1000 nM. Also, in assay [2], the EC50 fell in the range of 100 to 1000 nM.
Regarding `Cn1cc([C@H]2C[C@@H]2c2c(C(=O)O)cnn2-c2cccc(-c3cccc(OCc4cccc(-c5ccccc5)c4)c3)c2)nn1` (racemic) [Example 238, 1-(3′-([1,1′-Biphenyl]-3-ylmethoxy)-[1,1′-biphenyl]-3-yl)-5-((1,2- trans)-2-(1-methyl-1H-1,2,3-triazol-4-yl)cyclopropyl)-1H-pyrazole-4-carboxylic acid], the IC50 in assay [1] is 100 to 1000 nM. Further, the EC50 in assay [2] was 100 to 1000 nM.
For the compound `CC(Oc1cccc(-c2cccc(-n3ncc(C(=O)O)c3[C@H]3C[C@@H]3c3cn(C)nn3)c2)c1)c1cccc(-c2ccccc2)c1` (mixture of isomers) [Example 239, 1-(3′-(1-([1,1′-Biphenyl]-3-yl)ethoxy)-[1,1′-biphenyl]-3-yl)-5-((1,2-trans)-2-(1-methyl-1H-1,2,3-triazol-4-yl)cyclopropyl)-1H-pyrazole-4-carboxylic Acid], the IC50 in assay [1] was in the range of 100 to 1000 nM. For the same compound, the EC50 in assay [2] was 100 to 1000 nM.
